This passage reports TGI results from PubChem BioAssay (NCI).

Test systems include HCC-2998 colon; HCT-15 colon; HL-60(TB) leukemia; NCI-H226 lung; RXF 393 renal; U251 CNS.
Holding throughout (assay): DTP human tumour cell line panel, 48 h

Structures are written as SMILES.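 A five-concentration, 48-hour dose response in 96-well plates underlies each endpoint, interpolated linearly between surrounding concentrations. TGI: concentration producing complete growth inhibition.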

A word on the TGI: it is the concentration at which net growth stops. A high value points to lower sensitivity of the cells. On to `C/C(=N\O)c1cccc[n+]1Cc1ccccc1`, for which the TGI in the test with HCC-2998 colon, in the test on HCT-15 colon, in the test with HL-60(TB) leukemia, with NCI-H226 lung, in the test on RXF 393 renal and in the test on U251 CNS was above 100 µM each time.

As to `COc1ccccc1C(=O)NCC1CCCN2CCCCC12` (stereo not drawn), the TGI with HCC-2998 colon, with HCT-15 colon, in the test on HL-60(TB) leukemia, with NCI-H226 lung, with RXF 393 renal and in the test with U251 CNS was above 100 µM throughout.

For the molecule `CNc1ncnc2c1nc(NC1CCCC1)n2C1OC(CO)C(O)C1O` (stereo not drawn), the TGI in the test with HCC-2998 colon, in the test on HCT-15 colon, in the test on RXF 393 renal and in the test on U251 CNS was above 100 µM throughout.

On to `O=c1[nH]c(NCc2ccc(Cl)cc2)nc2nc[nH]c12`, for which the concentration for total growth inhibition (TGI) in the test with HCC-2998 colon, in the test with HCT-15 colon, in the test on NCI-H226 lung, with RXF 393 renal and in the test on U251 CNS was above 100 µM in each case.

`Cc1nc2sc(C(=O)c3ccc(Cl)cc3)c(N)c2c(-c2ccccc2Cl)c1C(=O)Nc1ccccc1`: the total growth inhibition concentration (TGI) with HCC-2998 colon is 59.9 µM; with HCT-15 colon, 43.5 µM; with HL-60(TB) leukemia, above 86.5 µM; in the test on NCI-H226 lung, 62.1 µM; in the test with RXF 393 renal it was 31.3 µM; in the test on U251 CNS, 37.4 µM.

For `O=C1CSC(c2ccc(Cl)cc2Cl)N1c1ccc(Oc2ccc(Cl)cc2)c(Cl)c1` (stereo not drawn), the TGI is above 100 µM in the test on HCC-2998 colon; 66.4 µM in the test on HCT-15 colon; 48.3 µM in the test on HL-60(TB) leukemia; above 100 µM with NCI-H226 lung; above 100 µM in the test with U251 CNS.

As for `C(#CP(c1ccccc1)c1ccccc1)P(C#CP(c1ccccc1)c1ccccc1)c1ccccc1`, the total growth inhibition concentration (TGI) in the test on HCC-2998 colon, in the test with HCT-15 colon, in the test with HL-60(TB) leukemia, in the test with NCI-H226 lung, in the test on RXF 393 renal and with U251 CNS was above 100 µM each time.

In the case of `COc1ccccc1C1(c2c(OC)c(=O)c2=O)SCCCS1`, the TGI with HCC-2998 colon, in the test with HCT-15 colon, with HL-60(TB) leukemia, in the test on NCI-H226 lung, in the test on RXF 393 renal and in the test with U251 CNS was above 100 µM each time.

For the molecule `O=C(/C(=C\I)c1ccccc1)c1ccccc1`, the TGI in the test on HCC-2998 colon amounted to 16.1 µM; in the test on HCT-15 colon, 9.37 µM; in the test on HL-60(TB) leukemia it was 2.57 µM; in the test with NCI-H226 lung it was 53.5 µM; with RXF 393 renal it was 11.7 µM; in the test with U251 CNS, 9.69 µM.

With `O=C(O)/C=C/c1ccc2c(c1)CC1(Cc3ccccc3C1)C2`, the TGI in the test with HCC-2998 colon was above 100 µM; in the test with HCT-15 colon, above 100 µM; with HL-60(TB) leukemia, 90.5 µM; in the test on NCI-H226 lung, 99.4 µM; with RXF 393 renal, above 100 µM; in the test with U251 CNS, above 100 µM.

On to `COc1ccc(NCC(=O)Nn2c(-c3ccccc3)nc3ccccc3c2=O)cc1`, for which the TGI in the test with HCC-2998 colon is above 100 µM; with HCT-15 colon it was above 100 µM; in the test on HL-60(TB) leukemia, above 100 µM; in the test on NCI-H226 lung, above 100 µM; in the test with RXF 393 renal it was above 10 µM; with U251 CNS, 87.1 µM.

With `CCOC(=O)c1c(SC(=O)c2ccc(OC)cc2)n(-c2ccccc2)c(=S)n(-c2ccccc2)c1=O`, the TGI in the test with HCC-2998 colon is above 100 µM; in the test on HCT-15 colon, 47.8 µM; with HL-60(TB) leukemia it was 70.2 µM; in the test on NCI-H226 lung, above 100 µM; with RXF 393 renal it was above 100 µM; in the test on U251 CNS it was above 100 µM.

Regarding `C=C1C(=O)O[C@H]2C[C@@H]1[C@@H](O)[C@H](O)[C@@H](C)CCCC(C)=CCC[C@@]2(C)O`, the TGI in the test with HCC-2998 colon was 60.5 µM; with HCT-15 colon, above 100 µM; with HL-60(TB) leukemia, above 100 µM; in the test with RXF 393 renal, 74.1 µM; in the test with U251 CNS, 64.5 µM.

Consider `O=C(Nc1ccc(S(=O)(=O)/N=c2\ncccn2C(=O)C(C(F)(F)F)C(F)(F)F)cc1)C(C(F)(F)F)C(F)(F)F`, for which the TGI in the test with HCC-2998 colon, in the test on HCT-15 colon, with HL-60(TB) leukemia, in the test on NCI-H226 lung, in the test on RXF 393 renal and in the test with U251 CNS was above 100 µM each time.

For the molecule `COc1cc(-c2c3c(cc4c2OCO4)[C@@H](Nc2ccc(-c4ccc(-c5ccc(N[C@@H]6c7cc8c(cc7C(c7cc(OC)c(O)c(OC)c7)[C@H]7C(=O)OC[C@H]67)OCO8)cc5)cc4)cc2)[C@H]2COC(=O)[C@@H]2C3)cc(OC)c1O` (stereo partly drawn), the TGI in the test with HCT-15 colon came to 4.79 µM; in the test on NCI-H226 lung, 6.31 µM; in the test on U251 CNS, 10.1 µM.

Consider `C=C(Cl)C(Cl)(CCl)CCC(Br)C(C)(C)Br` (stereo not drawn), for which the TGI in the test on HCC-2998 colon, with HCT-15 colon, with HL-60(TB) leukemia, in the test with NCI-H226 lung, in the test with RXF 393 renal and with U251 CNS was above 10 µM in each case.

For the molecule `CC1OC2OC3C(OCC(O)C3O)OC(=O)[C@]34CCC(C)(C)CC3C3=CCC5[C@@]6(C)C[C@H](O)[C@H](OC7OC(CO)C(O)C(O)C7OC7OCC(OC(=O)CC(C)(O)CC(=O)OC1C(O)C2O)C(O)C7O)[C@@](C)(CO)C6CC[C@@]5(C)[C@]3(C)CC4` (stereo partly drawn), the total growth inhibition concentration (TGI) with HCC-2998 colon turned out to be 5.12 µM; in the test on HCT-15 colon it was 19.2 µM; with HL-60(TB) leukemia, 4.11 µM; with NCI-H226 lung, 35.9 µM; in the test on U251 CNS, 12.6 µM.

As to `O=C(O)[C@H](CCC[C@H]1C(=O)O[C@H](c2ccccc2)[C@H](c2ccccc2)N1C(=O)OCc1ccccc1)N[C@@H](c1ccccc1)[C@H](O)c1ccccc1`, the TGI in the test with HCC-2998 colon is 44 µM; in the test on HCT-15 colon, above 100 µM; in the test with HL-60(TB) leukemia it was 38.8 µM; in the test with RXF 393 renal, 47.9 µM; in the test with U251 CNS it was 31.1 µM.

For `NC(Cc1ccc2nc3c4ccccc4c(=O)cc-3oc2c1)C(=O)O` (stereo not drawn), the TGI in the test on HCC-2998 colon, with HCT-15 colon, in the test on HL-60(TB) leukemia, with RXF 393 renal and in the test on U251 CNS was above 100 µM each time.

As to `O=C1CSC(c2cccc(Cl)c2)N1c1ccc(-c2ccc(-n3c(-c4ccccc4)nc4ccccc4c3=O)cc2)cc1` (stereo not drawn), the TGI with HCC-2998 colon, in the test on HCT-15 colon, with HL-60(TB) leukemia, in the test on NCI-H226 lung and in the test with U251 CNS was above 100 µM throughout.
